Laboratory results: US6946475B1, “Anticancer calcium channel blockers” (University of Virginia Patent Foundation, priority 1999, dated 2005)
Read-outs that look alike come from different tables or passages of the source.

Columns and labels:
[1] = system: DU145 (prostate cancer cell); assay: Measurement of cellular proliferation, DU145 cells; type: cell-based; conditions: DU 145, 48 hours
Experimental: (§1) Measurement of cellular proliferation: LNCaP cells at 2.5×10^4/well or PC3 cells at 5×10^4/well, both in a final volume of 100 μl, were plated in triplicate in standard flat bottom 96 well tissue culture plates in the presence of drug or vehicle (DMSO). Unless otherwise indicated, cells were grown for 48 hours at 37° C. in a CO2 incubator. Relative cell growth was determined with the CellTiter 96 aqueous cell proliferation assay (Promega, Madison, Wis.) as described by the manufacturer using an automated plate reader. Results were calculated in a blinded fashion and are means of triplicate determinations.
(§2) For the 48 hour proliferation, cells were cultured with calcium channel antagonists or without calcium channel antagonists. The IC50 values of the calcium channel antagonists were determined.
(§3) Using the measurement cell proliferation assay described hereinabove, the cell lines Jurkat, LNCap (prostate cancer cell), PC-31 (prostate cancer cell), DU145 (prostate cancer cell), MDA-468 (breast cancer cell), MDA-36 (Breast cancer cell), MCF-7 (breast cancer cell), MIA PaCa-2 (pancreatic cancer cell), Hep G2 (liver cancer cell), A549 (non-small cell lung cancer cells), NCI H460 (non-small cell lung cancer cells), HT-29 (colon cancer cell), HCT-116 (colon cancer cell) and SK OV-3 (ovarian cancer cell) were cultured in the presence of TH-1177, TH-1205, TH-1201, TH-2109, TH-2029, TH-2043, TN-2085 and TH-2279.

[2] = system: Jurkat cells; assay: Measurement of cellular proliferation, Jurkat cells; type: cell-based; conditions: Jurkat, 48 hours; read-out: PROLIFERATION IC50 Jurkat
Experimental: as §1, §2, §3

[3] = system: Hep G2 (liver cancer cell); assay: Measurement of cellular proliferation, Hep G2 cells; type: cell-based; conditions: Hep G2, 48 hours
Experimental: as §1, §2, §3

[4] = Toxicity in SCID mice without tumors; type: in vivo; conditions: 180 mg/kd/d
Experimental: Four SCID mice without tumors were given TH-1177 at a dose of 180 mg/kd/d.

[5] = system: MDA-361 cells (breast cancer cell); assay: Measurement of cellular proliferation, MDA-361 cells; type: cell-based; conditions: MDA-361, 48 hours; read-out: PROLIFERATION IC50 MDA-361
Experimental: as §1, §2, §3

[6] = system: MDA-468 (breast cancer cell); assay: Measurement of cellular proliferation, MDA-468 cells; type: cell-based; conditions: MDA-468, 48 hours
Experimental: as §1, §2, §3

[7] = system: A549 (non-small cell lung cancer cells); assay: Measurement of cellular proliferation, A549 cells; type: cell-based; conditions: A549, 48 hours
Experimental: as §1, §2, §3

[8] = system: SK OV-3 (ovarian cancer cell); assay: Measurement of cellular proliferation, SK OV-3 cells; type: cell-based; conditions: SK-OV-3, 48 hours
Experimental: as §1, §2, §3

[9] = biological target: T1, α1G subunit of a calcium channel (Homo sapiens, UniProt O43497); assay: Whole cell current recording, Xenopus oocytes transfected with α1G subunit; type: cell-based
T1 construct: expressed in transfected cells
T1 sequence (O43497 1-2171 isoform O43497-5): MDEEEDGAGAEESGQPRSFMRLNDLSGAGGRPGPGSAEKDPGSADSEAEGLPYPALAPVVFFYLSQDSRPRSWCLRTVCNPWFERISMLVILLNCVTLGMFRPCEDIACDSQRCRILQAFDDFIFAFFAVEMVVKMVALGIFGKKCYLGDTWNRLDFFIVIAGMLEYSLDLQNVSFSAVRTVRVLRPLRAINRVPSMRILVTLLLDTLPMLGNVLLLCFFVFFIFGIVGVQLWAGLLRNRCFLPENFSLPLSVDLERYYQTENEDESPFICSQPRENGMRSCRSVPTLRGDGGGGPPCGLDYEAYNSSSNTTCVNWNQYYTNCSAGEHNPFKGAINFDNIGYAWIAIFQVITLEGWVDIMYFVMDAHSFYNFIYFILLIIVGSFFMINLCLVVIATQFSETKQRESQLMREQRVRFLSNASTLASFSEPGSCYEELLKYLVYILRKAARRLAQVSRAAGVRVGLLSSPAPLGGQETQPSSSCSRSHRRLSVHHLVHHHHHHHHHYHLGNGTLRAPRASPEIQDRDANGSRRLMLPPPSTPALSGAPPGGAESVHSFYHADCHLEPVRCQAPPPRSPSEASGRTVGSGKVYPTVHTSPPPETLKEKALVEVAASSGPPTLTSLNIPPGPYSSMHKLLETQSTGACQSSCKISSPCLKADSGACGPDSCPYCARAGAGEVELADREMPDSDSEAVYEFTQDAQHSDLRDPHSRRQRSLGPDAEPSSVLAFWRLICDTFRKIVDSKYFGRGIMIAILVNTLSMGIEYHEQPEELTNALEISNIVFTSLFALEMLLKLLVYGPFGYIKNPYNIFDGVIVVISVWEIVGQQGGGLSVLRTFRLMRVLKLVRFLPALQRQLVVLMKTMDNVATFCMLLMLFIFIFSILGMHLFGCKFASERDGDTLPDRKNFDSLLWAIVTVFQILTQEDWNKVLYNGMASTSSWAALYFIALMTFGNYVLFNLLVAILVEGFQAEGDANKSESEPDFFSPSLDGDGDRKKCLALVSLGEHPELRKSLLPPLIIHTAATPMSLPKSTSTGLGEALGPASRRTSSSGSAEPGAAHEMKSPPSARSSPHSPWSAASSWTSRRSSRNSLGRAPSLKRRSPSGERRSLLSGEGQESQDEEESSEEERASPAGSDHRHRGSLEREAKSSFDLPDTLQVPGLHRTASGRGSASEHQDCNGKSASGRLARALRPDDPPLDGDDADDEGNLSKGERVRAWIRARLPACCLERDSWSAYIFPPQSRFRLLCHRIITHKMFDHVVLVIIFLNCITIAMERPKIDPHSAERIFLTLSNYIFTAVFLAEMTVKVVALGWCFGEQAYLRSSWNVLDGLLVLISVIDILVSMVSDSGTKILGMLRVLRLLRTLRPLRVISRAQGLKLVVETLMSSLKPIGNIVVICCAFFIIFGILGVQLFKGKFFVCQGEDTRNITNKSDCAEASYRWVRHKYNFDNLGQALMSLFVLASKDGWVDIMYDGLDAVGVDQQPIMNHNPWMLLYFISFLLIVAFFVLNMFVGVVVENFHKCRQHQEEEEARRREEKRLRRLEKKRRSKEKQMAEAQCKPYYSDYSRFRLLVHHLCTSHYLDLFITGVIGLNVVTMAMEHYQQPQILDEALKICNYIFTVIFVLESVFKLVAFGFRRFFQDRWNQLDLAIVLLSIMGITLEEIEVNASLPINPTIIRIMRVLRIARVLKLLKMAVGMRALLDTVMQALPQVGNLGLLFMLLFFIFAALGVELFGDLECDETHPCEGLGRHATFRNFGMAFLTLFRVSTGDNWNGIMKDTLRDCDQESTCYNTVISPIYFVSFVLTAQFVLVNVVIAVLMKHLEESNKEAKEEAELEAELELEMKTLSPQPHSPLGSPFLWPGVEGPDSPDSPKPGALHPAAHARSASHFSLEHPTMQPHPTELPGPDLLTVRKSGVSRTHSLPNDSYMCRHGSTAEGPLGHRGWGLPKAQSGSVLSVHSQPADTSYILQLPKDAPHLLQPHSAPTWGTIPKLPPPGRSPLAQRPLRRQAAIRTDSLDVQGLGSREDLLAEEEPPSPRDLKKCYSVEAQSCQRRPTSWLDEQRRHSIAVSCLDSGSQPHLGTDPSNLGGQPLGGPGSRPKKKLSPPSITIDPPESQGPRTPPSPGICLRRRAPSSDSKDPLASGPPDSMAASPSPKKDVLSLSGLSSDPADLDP
Experimental: The procedure of Example 9 was repeated except the cells were transfected with 2 μg of α1G subunit prepared in accordance with the procedure described in Cribbs, et al., FEBS Letters, 66, 54-58 (2000). Here the cells were depolarized using the depolarizing medium of Example 9. When the current reached the maximum level, then 10 μm pH 1177 was added to the medium and the change in current was observed. The current was measured at about zero pA. When the current remained constant, the TH-1177 was washed out, in accordance with the procedure in Example 9 and the change in the current value was again recorded.

[10] = system: PC3 prostate cancer cells; assay: Measurement of cellular proliferation, PC3 cells; type: cell-based, human
Experimental: as §1, §2, §3

[11] = system: HCT-116 (colon cancer cell); assay: Measurement of cellular proliferation, HCT-116 cells; type: cell-based; conditions: HCT 116, 48 hours
Experimental: as §1, §2, §3

[12] = system: NCI H460 (non-small cell lung cancer cells); assay: Measurement of cellular proliferation, NCI H460 cells; type: cell-based; conditions: NCI H460, 48 hours; read-out: PROLIFERATION IC50 NCl H460
Experimental: as §1, §2, §3

[13] = system: HT-29 (colon cancer cell); assay: Measurement of cellular proliferation, HT-29 cells; type: cell-based; conditions: HT-29, 48 hours
Experimental: as §1, §2, §3

Work on `COc1ccc(CCN2CCC[C@H]2COC(c2ccccc2)c2ccc(Cl)cc2)cc1` (stereo partly shown) [TH-1177] yielded an IC50 [1] of 19 µM, an IC50 [2] of 8 µM and an IC50 [3] of 32 µM. For the same compound, the “Gross findings at necropsy” value [4] was “no gross abnormalities”, the “Histological examination of kidney, adrenal gland, heart and liver” value [4] was “within normal limits” and the IC50 [5] was 26 µM. For the same compound, the IC50 [6] was 13 µM, the IC50 [7] was 71 µM and the IC50 [8] was 25 µM. The “Current in depolarized α1G-transfected cells” value ([9]; 10 μm added at maximum current) was “about zero”, the “Ability of calcium to cross the cell membrane” value ([9]; α1G-transfected Xenopus oocytes, restored on washout) was “completely inhibits” and the IC50 ([10]; FIG. 6B, 48 hours, read-out: IC50 for inhibition of PC3 proliferation) was 14 µM. The IC50 ([10]; PC-3, 48 hours, read-out: PROLIFERATION IC50 PC-3) was 15 µM, the IC50 [11] was 37 µM and the IC50 [12] was 15 µM. It also gave an IC50 [13] of about 100 µM.
